# What was measured:
# male C57BL/6 mice = experiment: Inhibition of icilin induced jumping in mice; assay type: in vivo; conditions: given 1 hour before icilin (i.p. 20 mg/kg), jumps counted 10 minutes post-icilin
# Experimental: Icilin Biochemical Challenge Models
# Inhibition of Icilin Induced Jumping in Mice
# Example compounds at doses ranging from 0.01 to 10 mg/kg were administered to male C57BL/6 mice (18-25 g, Taconic, n=10/treatment) 1 hour before icilin to assess the ability to block the spontaneous jumps induced by icilin (i.p. suspended in 100% PEG400 at 20 mg/kg, 5 mL/kg). The total number of jumps was recorded during the 10 minutes post-icilin administration based on the number of photocell beam breaks from the vertical array of open field boxes (Kinder Scientific) while movement of the mice was restricted within a clear Plexiglas® cylinder 9.5 cm diameter×30 cm height.
# human TRPM8 = target: T1, human TRPM8 (Homo sapiens, UniProt Q7Z2W7); experiment: Luminescence readout assay for measuring intracellular calcium (aequorin), hTRPM8 antagonism; assay type: cell-based; conditions: CHO cell line expressing human TRPM8 and aequorin; activation by icilin, L-menthol or cold buffer (table does not say which)
# T1 construct: expressed in transfected cells; host or cells: Chinese hamster ovary (CHO) cells, T-REx tetracycline-inducible expression system (Invitrogen), co-transfected with pcDNA3.1 jellyfish aequorin
# T1 sequence (Q7Z2W7 whole entry): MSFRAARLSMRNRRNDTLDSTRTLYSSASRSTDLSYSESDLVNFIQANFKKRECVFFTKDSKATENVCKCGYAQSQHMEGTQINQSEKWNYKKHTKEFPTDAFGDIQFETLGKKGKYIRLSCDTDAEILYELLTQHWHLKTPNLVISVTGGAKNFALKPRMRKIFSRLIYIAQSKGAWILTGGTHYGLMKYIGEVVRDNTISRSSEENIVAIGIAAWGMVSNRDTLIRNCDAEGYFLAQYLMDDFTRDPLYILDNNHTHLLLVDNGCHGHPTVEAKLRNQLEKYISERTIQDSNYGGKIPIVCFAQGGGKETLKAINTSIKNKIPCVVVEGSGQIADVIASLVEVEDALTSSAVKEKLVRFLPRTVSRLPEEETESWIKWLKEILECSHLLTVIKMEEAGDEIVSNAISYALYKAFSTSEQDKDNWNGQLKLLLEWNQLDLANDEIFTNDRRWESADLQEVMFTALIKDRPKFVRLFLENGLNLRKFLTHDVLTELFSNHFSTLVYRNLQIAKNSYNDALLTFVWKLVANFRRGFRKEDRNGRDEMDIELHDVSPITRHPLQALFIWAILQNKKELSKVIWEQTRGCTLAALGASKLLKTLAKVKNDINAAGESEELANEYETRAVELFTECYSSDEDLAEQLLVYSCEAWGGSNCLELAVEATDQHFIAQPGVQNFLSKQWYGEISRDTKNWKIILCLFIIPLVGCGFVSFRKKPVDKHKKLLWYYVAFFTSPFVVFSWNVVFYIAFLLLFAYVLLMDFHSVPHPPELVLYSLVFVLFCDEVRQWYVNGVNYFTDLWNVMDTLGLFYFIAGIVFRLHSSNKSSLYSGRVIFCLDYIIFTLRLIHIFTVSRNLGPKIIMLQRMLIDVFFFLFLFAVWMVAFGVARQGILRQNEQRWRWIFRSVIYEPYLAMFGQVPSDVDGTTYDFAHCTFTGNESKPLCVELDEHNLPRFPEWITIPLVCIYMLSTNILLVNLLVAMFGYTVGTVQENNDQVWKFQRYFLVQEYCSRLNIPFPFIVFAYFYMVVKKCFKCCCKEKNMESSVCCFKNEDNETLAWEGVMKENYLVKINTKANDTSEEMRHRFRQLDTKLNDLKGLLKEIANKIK
IC50 (human TRPM8) [nM],Structure (SMILES),% Inhibition of Mouse Jumping (male C57BL/6 mice; dose 10 mg/kg) [%],% Inhibition of Mouse Jumping (male C57BL/6 mice; dose 3 mg/kg) [%]
23,"O=C(Nc1cccnc1)N[C@@H](c1ccc(C(F)(F)F)c(F)c1)c1ncccc1C(F)(F)F [Example 1, (S)-1-((3-Fluoro-4-(trifluoromethyl)phenyl)(3-(trifluoromethyl)-pyridin-2-yl)methyl)-3-(pyridin-3-yl)urea bis(2,2,2-trifluoroacetate)]",75,
39,"C[C@H](NC(=O)N[C@@H](c1ccc(C(F)(F)F)c(F)c1)c1ncccc1C(F)(F)F)C(F)(F)F [Example 151, 1-((S)-(3-fluoro-4-(trifluoro-methyl)-phenyl)(3-(trifluoro-methyl)-pyridin-2-yl)-methyl)-3-((S)-1,1,1-trifluoro-propan-2-yl)-urea (2,2,2-trifluoro-acetate)]",,30
17,"O=C(Nc1cccnc1)N[C@@H](c1ccc(C(F)(F)F)c(F)c1)c1ncccc1F [Example 29, (S)-1-((3-fluoro-4-(trifluoro-methyl)-phenyl)(3-fluoropyridin-2-yl)methyl)-3-(pyridin-3-yl)urea]",96,
328,"O=C(N[C@@H](c1ccc(C(F)(F)F)c(F)c1)c1ncccc1C(F)(F)F)N1CCOCC1 [Example 167, (S)—N-((3-Fluoro-4-(trifluoromethyl)phenyl)(3-(trifluoromethyl)pyridin-2-yl)methyl)morpholine-4-carboxamide 2,2,2-trifluoroacetate]",,

# The remaining lines, values behind:
Structure (SMILES),IC50 (human TRPM8) [nM],% Inhibition of Mouse Jumping (male C57BL/6 mice; dose 10 mg/kg) [%],% Inhibition of Mouse Jumping (male C57BL/6 mice; dose 3 mg/kg) [%]
"CC1(C)C[C@H]1c1cccnc1[C@@H](NC(=O)Nc1cccnc1)c1ccc(C(F)(F)F)cc1 [Example 61, 1-((S)-(3-((R)-2,2-dimethylcyclopropyl)-pyridin-2-yl)-(4-(trifluoro-methyl)-phenyl)-methyl)-3-(pyridin-3-yl)-urea]",62,90,
"CC#Cc1cccnc1[C@@H](NC(=O)Nc1cccnc1)c1ccc(C(F)(F)F)cc1 [Example 51, (S)-1-((3-(prop-1-yn-1-yl)pyridin-2-yl)(4-(trifluoro-methyl)-phenyl)-methyl)-3-(pyridin-3-yl)-urea]",37,76,
"O=C(Nc1cccnc1)N[C@@H](c1ccc(C(F)(F)F)cc1)c1ncccc1C(F)(F)F [Example 44, (S)-1-(pyridin-3-yl)-3-((4-(trifluoro-methyl)-phenyl)(3-(trifluoro-methyl)-pyridin-2-yl)-methyl)urea]",23,74,
"COc1ccc(NC(=O)N[C@@H](c2ccc(C(F)(F)F)cc2)c2ncccc2C(F)(F)F)cc1OC [Example 74, (S)-1-(3,4-dimethoxy-phenyl)-3-((4-(trifluoro-methyl)-phenyl)(3-(trifluoro-methyl)-pyridin-2-yl)-methyl)urea (2,2,2-trifluoro-acetate)]",112,,
"COC(=O)[C@H](Cc1ccccc1)NC(=O)N[C@@H](c1ccc(C(F)(F)F)cc1)c1ncccc1C(F)(F)F [Example 136, (S)-methyl 3-phenyl-2-(3-((S)-(4-(trifluoro-methyl)-phenyl)(3-(trifluoro-methyl)-pyridin-2-yl)-methyl)-ureido)-propanoate (2,2,2-trifluoro-acetate)]",4050,,
"CCOC(=O)CNC(=O)N[C@@H](c1ccc(C(F)(F)F)cc1)c1ncccc1C(F)(F)F [Example 38, (S)-ethyl 2-(3-((4-(trifluoro-methyl)-phenyl)(3-(trifluoro-methyl)-pyridin-2-yl)-methyl)-ureido)acetate (2,2,2-trifluoro-acetate)]",1500,,
"COC(=O)c1cccc(NC(=O)N[C@@H](c2ccc(C(F)(F)F)cc2)c2ncccc2C(F)(F)F)c1C [Example 182, (S)-methyl 2-methyl-3-(3-((4-(trifluoro-methyl)phenyl) (3-(trifluoro-methyl)pyridin-2-yl)methyl)ureido)benzoate (2,2,2-trifluoro-acetate)]",425,,

# From US8778941B2, “TRPM8 antagonists and their use in treatments” (AMGEN Inc., priority 2011, dated 2014)
